From publication PMC12193579, “Pro-Apoptotic Activity of 1-(4,5,6,7-Tetrabromo-1H-benzimidazol-1-yl)propan-2-one, an Intracellular Inhibitor of PIM-1 Kinase in Acute Lymphoblastic Leukemia and Breast Cancer Cells” (International Journal of Molecular Sciences, 2025)

Experiments:
Type in all cases: cell-based, human
[1] = tested on: MCF-7 cells; assay: cell cycle progression by flow cytometry, MCF-7; conditions: 48 h
Method: Additionally, we observed the prolongation of G2/M in MCF-7 treated with 1 at the highest concentration. […] 1 induced G2/M phase arrest in MCF-7 with the highest effect detected for the 16 µM concentration, manifested as 32% cells in that stage, whereas in the control, the percentage of G2/M cells was 22%.
(§1) CCRF-CEM and MCF-7 cells were cultured in 6-well plates and treated with the tested compounds for 48 h. After exposure to the compounds, the cells were collected, washed with cold PBS, and fixed in 70% ethanol at –20 °C for at least 24 h. Subsequently, the cells were washed in PBS and stained according to the procedure previously described by our group. The cellular DNA content was measured by flow cytometry using a BD Accuri C6 Plus flow cytometer (BD Biosciences, San Jose, CA, USA). The resulting DNA histograms were analyzed with BD Accuri C6 Plus software (San Diego, CA, USA) to assess the distribution of cells across different phases of the cell cycle.

[2] = tested on: CCRF-CEM cells; assay: cell cycle progression by flow cytometry, CCRF-CEM; conditions: 16 µM, 48 h
Method: Since CK2 and PIM kinases regulate cell cycle progression, their inhibition may alter the distribution of cells across different cell cycle phases. […] For control cells, the percentage of G2/M cells was 17%. In addition to those changes, we observed cells in the sub-G1 phase, which are apoptotic cells. Accumulation of cells in this phase reflects DNA degradation characteristic of apoptotic cells. The largest percentage of these cells, i.e., 32% was determined in 16 µM 1-treated cells (Figure 6a,b).
as §1

[3] = tested on: MDA-MB-231 (breast carcinoma); assay: MTT-based viability assay, MDA-MB-231
Method: (§2) 3. The cytotoxicity of the newly obtained inhibitors, i.e., 1, 2, and 4 was tested towards four cell lines, i.e., CCRF-CEM (acute lymphoblastic leukemia ALL), MCF-7 (breast carcinoma), MDA-MB-231 (triple negative breast carcinoma), and Vero (Cercopithecus aethiops kidney).
(§3) The CCRF-CEM (acute lymphoblastic leukemia, ALL) and MDA-MB-231 (triple-negative breast adenocarcinoma) cell lines were obtained from the European Collection of Authenticated Cell Cultures (ECACC), while the MCF-7 (hormone-dependent breast adenocarcinoma) and Vero (Cercopithecus aethiops kidney) cell lines were purchased from the American Type Culture Collection (ATCC, Manassas, VA, USA). CCRF-CEM cells were maintained in RPMI-1640 medium, whereas MCF-7 and MDA-MB-231 cells were cultured in DMEM (Sigma-Aldrich Chemical Company, St. Louis, MO, USA). Vero cells were cultured in minimum essential medium eagle (MEM; Sigma-Aldrich). All media were supplemented with 10% fetal bovine serum (FBS), 2 mM L-glutamine, and antibiotics (100 U/mL penicillin and 100 µg/mL streptomycin) (Sigma-Aldrich). Cells were grown in 75-cm^2 culture flasks (Googlab Scientific, Rakocin, Poland) in a humidified atmosphere containing 5% CO2 at 37 °C. All experiments were performed using exponentially growing cultures. Stock solutions of the test compounds were prepared in DMSO and stored at –80 °C for up to one month.
(§4) Following incubation with the tested compounds, the MTT assay was carried out as previously described. Optical density was measured at 570 nm using a BioTek microplate reader (Winooski, VT, USA). All measurements were performed in at least three independent biological replicates.

[4] = tested on: PIM-1 kinase in CCRF-CEM cells (Ser112 in BAD); assay: Western blot of phosphorylated BAD (Ser112), marker of PIM kinase activity, CCRF-CEM; conditions: 16 µM, 24 h, untreated cells = 1
Method: (§5) After 24 h of treatment, we assessed site-specific phosphorylation of Ser529 in NF-κB p65 and Ser112 in BAD—a marker of PIM kinase activity—using Western blot analysis (Figure 8). The data for BAD confirmed intracellular inhibition of this kinase by the tested compounds in both cell lines in a dose-dependent manner. A statistically significant decrease in phosphorylated BAD was observed following treatment with 16 µM of compound 1, with relative protein levels reduced to 0.48 and 0.46 in CCRF-CEM and MCF-7 cells, respectively (Figure 8a–c).
(§6) Exponentially growing CCRF-CEM or MCF-7 cells were seeded at a density of 6 × 10^5 cells per 6 cm dish. Compounds were then added, with a final DMSO concentration of 0.5%. Cell lysates were prepared as previously described. The ECL substrate was used for signal detection, and the immunoblots were scanned using a G:BOX Chemi imaging system (Syngene, Cambridge, UK) equipped with GeneSys software, Version 1.4.3.0 (Syngene, Cambridge, UK).
(§7) For densitometric analysis, immunoblots were scanned using the G:BOX Chemi system (Syngene), and the band intensities of phosphorylated and total proteins were quantified with GeneSys software (Syngene, Cambridge, UK). The levels of phosphorylated proteins were normalized to GAPDH, with the value for untreated cells set to 1, and subsequently expressed as a percentage relative to the appropriate control.

[5] = tested on: MCF-7 (breast carcinoma); assay: MTT-based viability assay, MCF-7
Method: as §2, §3, §4

[6] = tested on: PIM-1 kinase in MCF-7 cells (Ser112 in BAD); assay: Western blot of phosphorylated BAD (Ser112), marker of PIM kinase activity, MCF-7; conditions: 16 µM, 24 h, untreated cells = 1
Method: as §5, §6, §7

[7] = tested on: CK2 in MCF-7 cells (Ser529 in NF-κB p65); assay: Western blot of phosphorylated p65 (Ser529), intracellular CK2 inhibition, MCF-7; conditions: 8 µM, 24 h, untreated cells = 1
Method: as §5, §6, §7

[8] = tested on: CCRF-CEM cells; assay: annexin V/propidium iodide apoptosis, flow cytometry, CCRF-CEM; conditions: 48 h, annexin V binding
Method: The results obtained for CCRF-CEM and MCF-7 are shown in Figure 3 and Figure 4, respectively. […] 1, 79.6% of cells were apoptotic.
CCRF-CEM cells were seeded in 24-well plates at a density of 2 × 10^5 cells/mL. The cells were treated with the tested compounds at concentrations of 8, 16, and 32 µM, followed by incubation for 48 h. After treatment, the cells were harvested and processed according to the previously described protocol. Flow cytometric measurements were conducted within 1 h of cell labeling. Viable, necrotic, early apoptotic, and late apoptotic cells were identified using a BD Accuri C6 Plus flow cytometer and analyzed with BD Accuri C6 Plus software, version 1.0.34.1 (BD Biosciences, San Jose, CA, USA).

[9] = IC50 for Vero/IC50 for cancer cells

For `CC(=O)Cn1cnc2c(Br)c(Br)c(Br)c(Br)c21` [compound 1, 1-(4,5,6,7-tetrabromo-1H-benzimidazol-1-yl)propan-2-one], the “MCF-7 cells in the S phase” value ([1]; 8 µM, control 17%) was 11%, the “MCF-7 cells in the G2/M phase” value ([1]; 16 µM, control 22%) was 32% and the “CCRF-CEM cells in the sub-G1 phase” value [2] was 32%. For the same compound, the “CCRF-CEM cells in the G2/M phase” value ([2]; control 17%) was 10%, the “CCRF-CEM cells in the S phase” value ([2]; control 33%) was 20% and the IC50 ([3]; Homo sapiens, MDA-MB-231, MTT, 48 h, read-out: IC50 [µM] MDA-MB-231) was 21.2 ± 0.76 µM. For the same compound, the “SI (selectivity index) MDA-MB-231” value [3, 9] was 0.95, the “relative level of phosphorylated BAD (Ser112), CCRF-CEM” value [4] was 0.48 and the IC50 ([5]; Homo sapiens, MCF7, MTT, 48 h, read-out: IC50 [µM] MCF-7) was 17.1 ± 2.07 µM. For the same compound, the “SI (selectivity index) MCF-7” value [5, 9] was 1.18, the “relative level of phosphorylated BAD (Ser112), MCF-7” value [6] was 0.46 and the “relative level of p65-P (Ser529), MCF-7” value [7] was 0.84. The “apoptotic CCRF-CEM cells” value ([8]; 8 µM) was 23.5%, the “apoptotic CCRF-CEM cells” value ([8]; 16 µM) was 79.6% and the “apoptotic CCRF-CEM cells” value ([8]; 32 µM) was roughly 98%.
